From PubChem BioAssay AID256 (DTP/NCI, 2004)
Several values for one entry are separate records, joined by “and”; a condition that tells them apart may be missing. Equal values may be shown once. Inconclusive results and toxic doses are left out. How the source made its calls: active means survival T/C of 150% or more; inactive means T/C below 125% in these data.

Tested on: CD2F1 mice, L1210 leukemia ip, survival T/C
Test: NCI In Vivo Anticancer Drug Screen. Data for tumor model L1210 Leukemia (intraperitoneal) in CD2F1 (CDF1) mice
Details: higher = longer survival
In short: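 Compound-dosed mice with transplantable tumor versus matched vehicle controls; endpoint ratio T/C reported.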

[1] = endpoint: mean survival time, dose: 100.0 mg/kg/injection, schedule: Q01DX001 (ip), vehicle: saline with Tween-80
[2] = endpoint: mean survival time, dose: 200.0 mg/kg/injection, schedule: Q01DX001 (ip), vehicle: saline with Tween-80
[3] = endpoint: mean survival time, dose: 100.0 mg/kg/injection, schedule: Q04DX003 (ip), vehicle: saline with Tween-80
[4] = endpoint: mean survival time, dose: 200.0 mg/kg/injection, schedule: Q04DX003 (ip), vehicle: saline with Tween-80
[5] = endpoint: mean survival time, dose: 100.0 mg/kg/injection, schedule: Q01DX009 (ip), vehicle: saline
[6] = endpoint: mean survival time, dose: 200.0 mg/kg/injection, schedule: Q01DX009 (ip), vehicle: saline
[7] = endpoint: mean survival time, dose: 400.0 mg/kg/injection, schedule: Q01DX009 (ip), vehicle: saline
[8] = endpoint: mean survival time, dose: 400.0 mg/kg/injection, schedule: Q04DX003 (ip), vehicle: saline with Tween-80
[9] = endpoint: mean survival time, dose: 100.0 mg/kg/injection, schedule: Q01DX009 (ip), vehicle: saline with Tween-80
[10] = endpoint: mean survival time, dose: 200.0 mg/kg/injection, schedule: Q01DX009 (ip), vehicle: saline with Tween-80
[11] = endpoint: mean survival time, dose: 400.0 mg/kg/injection, schedule: Q01DX009 (ip), vehicle: saline with Tween-80
[12] = endpoint: mean survival time, dose: 400.0 mg/kg/injection, schedule: Q01DX001 (ip), vehicle: saline with Tween-80

Measured: T/C

CSC/C(=N\Nc1ccc([N+](=O)[O-])cc1[N+](=O)[O-])c1ccccc1
inactive: endpoint: mean survival time, dose: 50.0 mg/kg/injection, schedule: Q01DX001 (ip), vehicle: saline with Tween-80 98 % of control | [1] 93 % of control | [2] 90 % of control

Nc1ncnc2c1ncn2C1CC(O)C(CO)O1 (stereo unspecified)
inactive: endpoint: mean survival time, dose: 600.0 mg/kg/injection, schedule: Q03HX024 (ip), vehicle: saline with Tween-80 97 % of control | endpoint: mean survival time, dose: 900.0 mg/kg/injection, schedule: Q03HX024 (ip), vehicle: saline with Tween-80 103 % of control

C=C1C(=O)OC2CC(C)C3C(O)C(O)C(O)C3(C)CC12 (stereo unspecified)
inactive: [3] 102 % of control | [4] 104 % of control

O=c1n(C2OC(CO)C(O)C2O)ccc2nnnn12 (stereo unspecified)
inactive: endpoint: mean survival time, dose: 12.5 mg/kg/injection, schedule: Q01DX005 (ip), vehicle: distilled water + Tween-80 100 % of control | endpoint: mean survival time, dose: 25.0 mg/kg/injection, schedule: Q01DX005 (ip), vehicle: distilled water + Tween-80 96 % of control | endpoint: mean survival time, dose: 50.0 mg/kg/injection, schedule: Q01DX005 (ip), vehicle: distilled water + Tween-80 100 % of control | endpoint: mean survival time, dose: 100.0 mg/kg/injection, schedule: Q01DX005 (ip), vehicle: distilled water + Tween-80 96 % of control | endpoint: mean survival time, dose: 200.0 mg/kg/injection, schedule: Q01DX005 (ip), vehicle: distilled water + Tween-80 102 % of control

COC(=O)C(NC=O)C(=O)OC
inactive: [5] 105 % of control | endpoint: mean survival time, dose: 100.0 mg/kg/injection, schedule: Q04DX003 (ip), vehicle: saline 93 % of control | [6] 107 % of control | endpoint: mean survival time, dose: 200.0 mg/kg/injection, schedule: Q04DX003 (ip), vehicle: saline 101 % of control | [7] 117 % of control | endpoint: mean survival time, dose: 400.0 mg/kg/injection, schedule: Q04DX003 (ip), vehicle: saline 95 % of control

O=CC(O)C(O)C(O)C(O)CO (stereo unspecified)
inactive: [5] 93 % of control | [6] 91 % of control | endpoint: mean survival time, dose: 0.2 grams/kg/injection, schedule: Q03DX003 (ip), vehicle: water 100 % of control | [7] 95 % of control | endpoint: mean survival time, dose: 0.4 grams/kg/injection, schedule: Q03DX003 (ip), vehicle: water 108 % of control | endpoint: mean survival time, dose: 0.8 grams/kg/injection, schedule: Q03DX003 (ip), vehicle: water 107 % of control | endpoint: mean survival time, dose: 1.5 grams/kg/injection, schedule: Q03DX003 (ip), vehicle: water 100 % of control | endpoint: mean survival time, dose: 3.0 grams/kg/injection, schedule: Q03DX003 (ip), vehicle: water 101 % of control | endpoint: mean survival time, dose: 6.0 grams/kg/injection, schedule: Q03DX003 (ip), vehicle: water 100 % of control | endpoint: mean survival time, dose: 12.0 grams/kg/injection, schedule: Q03DX003 (ip), vehicle: water 106 % of control | endpoint: median survival time, dose: 75.0 mg/kg/injection, schedule: Q01DX009 (ip), vehicle: saline 101 % of control | endpoint: median survival time, dose: 150.0 mg/kg/injection, schedule: Q01DX009 (ip), vehicle: saline 101 % of control | endpoint: median survival time, dose: 300.0 mg/kg/injection, schedule: Q01DX009 (ip), vehicle: saline 100 % of control | endpoint: median survival time, dose: 600.0 mg/kg/injection, schedule: Q01DX009 (ip), vehicle: saline 100 % of control | endpoint: median survival time, dose: 1200.0 mg/kg/injection, schedule: Q01DX009 (ip), vehicle: saline 102 % of control

O=[N+]([O-])c1ccc(C2C3C(c4ccccc4)=NCCCN32)cc1 (stereo unspecified)
inactive: [3] 104 % of control | [4] 97 % of control | [8] 97 % of control

O=C(NC(Cc1c[nH]c2ccccc12)C(=O)O)c1ccccc1 (stereo unspecified)
inactive: [9] 108 % of control | [3] 109 % of control | [10] 100 % of control | [4] 98 % of control | [11] 104 % of control | [8] 103 % of control | endpoint: mean survival time, dose: 600.0 mg/kg/injection, schedule: Q01DX009 (ip), vehicle: saline with Tween-80 108 % of control

CCCCCCCCCCCCCC(=O)N(C)C
inactive: endpoint: mean survival time, dose: 50.0 mg/kg/injection, schedule: Q01DX009 (ip), vehicle: saline 92 % of control | [5] 98 % of control | [3] 95 % of control | [6] 95 % of control | [4] 103 % of control

CC(C)C(=O)Nc1ccc(Cl)cc1
inactive: [9] 100 % of control | [10] 97 % of control

O=c1cnn(C2OC(CO)C(O)C2O)c(=S)[nH]1 (stereo unspecified)
inactive: [9] 123 % of control | endpoint: mean survival time, dose: 100.0 mg/kg/injection, schedule: Q04DX003 (ip), vehicle: saline sonified 102 % of control | [10] 107 % of control | endpoint: mean survival time, dose: 200.0 mg/kg/injection, schedule: Q04DX003 (ip), vehicle: saline sonified 104 % of control | [11] 112 % of control | endpoint: mean survival time, dose: 400.0 mg/kg/injection, schedule: Q04DX003 (ip), vehicle: saline sonified 96 % of control

CSc1nc(NC2OCC(O)C(O)C2O)c(I)c(=O)n1C (stereo unspecified)
inactive: endpoint: median survival time, dose: 12.5 mg/kg/injection, schedule: Q01DX005 (ip), vehicle: saline with Tween-80 103 % of control | endpoint: median survival time, dose: 25.0 mg/kg/injection, schedule: Q01DX005 (ip), vehicle: saline with Tween-80 101 % of control | endpoint: median survival time, dose: 50.0 mg/kg/injection, schedule: Q01DX005 (ip), vehicle: saline with Tween-80 101 % of control | endpoint: median survival time, dose: 100.0 mg/kg/injection, schedule: Q01DX005 (ip), vehicle: saline with Tween-80 100 % of control | endpoint: median survival time, dose: 200.0 mg/kg/injection, schedule: Q01DX005 (ip), vehicle: saline with Tween-80 100 % of control

NS(=O)(=O)c1cccc([N+](=O)[O-])c1
inactive: [1] 95 % of control | [2] 92 % of control | [12] 97 % of control

COC(=O)C1=NC=NC1=[N+]=[N-]
inactive: endpoint: mean survival time, dose: 10.0 mg/kg/injection, schedule: Q01DX001 (ip), vehicle: saline 96 % of control | endpoint: mean survival time, dose: 20.0 mg/kg/injection, schedule: Q01DX001 (ip), vehicle: saline 93 % of control

CCOC(=O)/C(C)=C/C(O)CO (stereo unspecified)
inactive: endpoint: mean survival time, dose: 100.0 mg/kg/injection, schedule: Q01DX009 (ip), vehicle: saline sonified 96 % of control | [3] 105 % of control | endpoint: mean survival time, dose: 200.0 mg/kg/injection, schedule: Q01DX009 (ip), vehicle: saline sonified 95 % of control | [4] 98 % of control | [8] 96 % of control

CSc1nc(N)c(C#N)cc1C#N
inactive: [1] 100 % of control | [2] 89 % of control | [12] 89 % of control

COC(=O)c1cc(NS(=O)(=O)c2ccc(N)c([N+](=O)[O-])c2)cc(C(=O)OC)c1
inactive: [9] 98 % of control | [10] 95 % of control | [11] 96 % of control

COc1cccc2c1C(=O)C1=C(C2=O)c2c(O)cc(CO)cc2C(O)C1O (stereo unspecified)
inactive: endpoint: median survival time, dose: 3.12 mg/kg/injection, schedule: Q01DX005 (ip), vehicle: other 101 % of control | endpoint: median survival time, dose: 6.25 mg/kg/injection, schedule: Q01DX005 (ip), vehicle: other 105 % of control | endpoint: median survival time, dose: 12.5 mg/kg/injection, schedule: Q01DX005 (ip), vehicle: other 103 % of control | endpoint: median survival time, dose: 25.0 mg/kg/injection, schedule: Q01DX005 (ip), vehicle: other 109 % of control | endpoint: median survival time, dose: 50.0 mg/kg/injection, schedule: Q01DX005 (ip), vehicle: other 119 % of control

ClCCN(CCCl)c1ccc(CCN2CCCCC2)cc1
inactive: endpoint: mean survival time, dose: 3.12 mg/kg/injection, schedule: Q01DX009 (ip), vehicle: Klucel (hydroxypropylcellulose) (HPC) 106 % of control | endpoint: mean survival time, dose: 6.25 mg/kg/injection, schedule: Q01DX009 (ip), vehicle: Klucel (hydroxypropylcellulose) (HPC) 106 % of control | endpoint: mean survival time, dose: 12.5 mg/kg/injection, schedule: Q01DX009 (ip), vehicle: Klucel (hydroxypropylcellulose) (HPC) 121 % of control and 108 % of control | endpoint: mean survival time, dose: 25.0 mg/kg/injection, schedule: Q01DX009 (ip), vehicle: Klucel (hydroxypropylcellulose) (HPC) 118 % of control

CCCCCCCCCCCCCCCC(=O)Oc1ccc(/C(CC)=C(/CC)c2ccc(OC(=O)CCCCCCCCCCCCCCC)cc2)cc1
inactive: [9] 91 % of control

Cc1c2ccncc2c(C)c2c1oc1ccccc12
inactive: endpoint: mean survival time, dose: 100.0 mg/kg/injection, schedule: Q01DX001 (ip), vehicle: other 108 % of control | endpoint: mean survival time, dose: 200.0 mg/kg/injection, schedule: Q01DX001 (ip), vehicle: other 98 % of control | endpoint: mean survival time, dose: 400.0 mg/kg/injection, schedule: Q01DX001 (ip), vehicle: other 95 % of control

COc1cc([N+](=O)[O-])c(C=O)c(C(=O)O)c1OC
inactive: [9] 103 % of control | [3] 90 % of control | [10] 104 % of control | [4] 98 % of control | [11] 110 % of control | [8] 107 % of control
